{"source": "patent US7049080B2", "about": "“Process for detecting serine/threonine kinase activity” (priority 2000, dated 2006)", "key": {"NEB antibody #9251 [1]": {"test_system": "NEB antibody #9251", "test": "FP controls conjugate/high/low (Example 8)", "format": "binding, rabbit", "conditions": "0 h", "experimental": "The following reagents have been used (explanations later on): Hepes buffer, MgCl2 (10 mM), ATP (20 μM), P1^∘ peptide (100 μM), polyclonal antibody NEB #9251 (1:20), P1*^∘-TAMRA (5 nM), Pluronic (0.1%), BSA (0.01%), MKK7 at (0.04, 0.08 and 0.2 μM), EDTA (10 mM) (all final conc.).\nThe enzyme reactions were performed in Eppendorf reaction tubes at RT. Aliquots of 20 μl were withdrawn from the reactions at different time points and mixed with 10 μl STOP solution. The stopped reactions were incubated at RT for at least 30 min and measured by Fluorescence Polarization.\n(§1) Bis-phosphorylated peptide P1*^∘ can be used as competitor, resulting in free labelled ligand called “low” or “negative control”. This can be seen in the following table 1."}, "NEB antibody #9251 [2]": {"test_system": "NEB antibody #9251", "test": "FP controls conjugate/high/low (Example 7)", "format": "binding, rabbit", "conditions": "0 h", "experimental": "The following reagents have been used (the compositions of the buffers and specifications of the reagents are explained in more detail later on): Hepes buffer, MgCl2 10 mM, ATP 20 μM, P1^∘ peptide at 100 μM, NEB antibody # 9251 1:20 dilution, P1*^∘-TAMRA 5 nM, Pluronic 0.1%, MKK7 at 0, 0.005, 0.02, 0.08, 0.2, 0.5 and 2 μM.\nAfter addition of MKK7, the enzyme reactions were performed in Nunc chambers at RT. The samples were continuously measured at different time points by Fluorescence polarization.\nas §1"}, "[3]": {"biological_target": "polyclonal phospho-JNK antibody NEB #9251", "test": "Binding of polyclonal phospho-JNK antibody to TAMRA-labelled peptides (fluorescence polarization)", "parameters": "species or system rabbit", "excerpt": "The polarization values dramatically increase when using the double-phosphorylated peptide substrate P1*^∘ in contrast to mono-phosphorylated labelled peptide P1^∘ (sequence see above).\nMeasurement of the Binding Affinity (KD) of Antibody NEB #9251:\nThis polyclonal antibody detects all three isoforms of the SAPK1/JNK proteins only when they are activated by dual phosphorylation at threonine183/tyrosine185. Binding of poly-clonal phospho-JNK antibody (at a dilution of 1:20) from NEB to TAMRA-labelled P1^∘- and P1*^∘ peptides (each 5 nM) was measured by fluorescence polarization."}, "MKK7": {"biological_target": "T1, MKK7 (Homo sapiens, UniProt O14733)", "T1 construct": "purchased Upstate Biotech 14-366", "T1 sequence (O14733 1-419)": "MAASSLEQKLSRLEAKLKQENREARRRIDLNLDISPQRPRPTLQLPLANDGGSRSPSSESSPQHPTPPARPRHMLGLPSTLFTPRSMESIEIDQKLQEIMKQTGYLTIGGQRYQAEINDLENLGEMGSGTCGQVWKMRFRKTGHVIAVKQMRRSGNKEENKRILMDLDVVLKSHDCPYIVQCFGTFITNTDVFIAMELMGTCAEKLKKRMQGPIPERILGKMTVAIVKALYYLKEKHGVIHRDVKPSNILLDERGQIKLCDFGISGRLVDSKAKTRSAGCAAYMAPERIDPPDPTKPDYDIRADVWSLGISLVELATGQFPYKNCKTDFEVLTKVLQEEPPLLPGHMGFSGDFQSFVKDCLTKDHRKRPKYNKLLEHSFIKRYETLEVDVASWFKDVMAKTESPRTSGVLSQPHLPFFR", "test": "Determination of Km for ATP (MKK7 phosphorylation, FP read-out)", "format": "biochemical", "conditions": "MKK7 80 nM, P1° 100 μM, RT", "experimental": "Efficient phosphorylation of P1^∘ peptide is dependent on the optimal ATP concentration. […] From the detected fluorescence polarization signals, the Michaelis-Menten constant (Km), reflecting the half-maximal phosphorylation rate, was determined for ATP.\nDetermination of Km for ATP (Read-out: Fluorescence Polarization): […]"}}, "note": "pKd: −log10 of the molar value. Non-standard residues stand in square brackets, D forms with d. No end group written: not given here. *: point of attachment. 5‑TAMRA = CN(C)c1ccc2c(-c3ccc(C(=O)*)cc3C(=O)[O-])c3ccc(N(C)C)cc3[o+]c2c1; pY = N[C@@H](Cc1ccc(OP(=O)(O)O)cc1)C(=O)O; pT = C[C@@H](OP(=O)(O)O)[C@H](N)C(=O)O; AEEA = NCCOCCOCC(=O)O", "data": [{"molecule": "5-TAMRA-AEEA-Lys-Phe-Met-Met-pThr-Pro-pTyr-Val-Val-Thr-Arg-NH2 ({5‑TAMRA-AEEA}-KFMM[pT]P[pY]VVTR-NH2; SMILES CSCC[C@H](NC(=O)[C@H](Cc1ccccc1)NC(=O)[C@H](CCCCN)NC(=O)COCCOCCNC(=O)c1ccc(-c2c3ccc(N(C)C)cc3[o+]c3cc(N(C)C)ccc23)c(C(=O)[O-])c1)C(=O)N[C@@H](CCSC)C(=O)N[C@H](C(=O)N1CCC[C@H]1C(=O)N[C@@H](Cc1ccc(OP(=O)(O)O)cc1)C(=O)N[C@H](C(=O)N[C@H](C(=O)N[C@H](C(=O)N[C@@H](CCCNC(=N)N)C(N)=O)[C@@H](C)O)C(C)C)C(C)C)[C@@H](C)OP(=O)(O)O) [P1*^∘-TAMRA]", "values": [{"measurement": "Fluorescence Polarization", "setting": "NEB antibody #9251 [1]; Conjugate alone", "value": 33.2, "unit": "mP"}, {"measurement": "Fluorescence Polarization", "setting": "NEB antibody #9251 [1]; High: + NEB ab (1:20)", "value": 145.7, "unit": "mP"}, {"measurement": "Fluorescence Polarization", "setting": "NEB antibody #9251 [2]; Conjugate alone", "value": 39.7, "unit": "mP"}, {"measurement": "Fluorescence Polarization", "setting": "NEB antibody #9251 [2]; High: + NEB ab (1:20)", "value": 139.1, "unit": "mP"}, {"measurement": "pKd", "setting": "[3]; antibody 1:20, peptide 5 nM, read-out: KD, affinity of polyclonal phospho-JNK antibody for peptide", "value": 8.59}]}, {"molecule": "H-Lys-Phe-Met-Met-Thr-Pro-pTyr-Val-Val-Thr-Arg-NH2 (H-KFMMTP[pY]VVTR-NH2; SMILES CSCC[C@H](NC(=O)[C@H](Cc1ccccc1)NC(=O)[C@@H](N)CCCCN)C(=O)N[C@@H](CCSC)C(=O)N[C@H](C(=O)N1CCC[C@H]1C(=O)N[C@@H](Cc1ccc(OP(=O)(O)O)cc1)C(=O)N[C@H](C(=O)N[C@H](C(=O)N[C@H](C(=O)N[C@@H](CCCNC(=N)N)C(N)=O)[C@@H](C)O)C(C)C)C(C)C)[C@@H](C)O) [P1^∘]", "values": [{"measurement": "Fluorescence Polarization", "setting": "NEB antibody #9251 [1]; Low: P1*°-Tamra + NEB ab (1:20) + competitor 200 nM", "value": 71.5, "unit": "mP"}]}, {"molecule": "Nc1ncnc2c1ncn2[C@@H]1O[C@H](COP(=O)(O)OP(=O)(O)OP(=O)(O)O)[C@@H](O)[C@H]1O", "note": "[ATP]", "values": [{"measurement": "Vmax", "setting": "MKK7", "value": 0.28, "unit": "mP/min"}]}, {"molecule": "TAMRA-labelled P1^∘-peptide: TAMRA-labelled mono-phosphorylated P1° peptide, control for antibody binding (KFMMTP[pY]VVTR-NH2; not fully specified (residue 5, N-terminus); also: TAMRA label, site not given here)", "values": [{"measurement": "binding of the polyclonal JNK antibody", "setting": "[3]; control", "value": "no binding"}]}]}
